These results are taken from ChEMBL document CHEMBL6109037, “Understanding the mechanisms of antimicrobial resistance and potential therapeutic approaches against the Gram-negative pathogen Acinetobacter baumannii” (RSC Med Chem, 2024).

As a reminder, the MIC is the smallest concentration in the dilution series that meets the test's criterion for growth inhibition. What is called pIC50 is −log10 of the IC50, conventionally taken in molar units. The term MBC denotes the lowest tested concentration that kills the bacteria rather than only halting them.

pIC50: −log10 of the molar value. In brackets after ≈: the same amount, converted by molar mass.

The test system of experiment [1] is Acinetobacter baumannii. The experiment in a line: Antibacterial activity against Acinetobacter baumannii ATCC 17978 assessed as reduction in bacterial growth incubated for 24 hrs by micro-broth dilution method. The format is functional. A general note: Dilution methods test growth across graded concentrations, often in twofold steps.
In experiment [2] the test system is Acinetobacter baumannii. The experiment in a line: Antibacterial activity against multidrug-resistant Acinetobacter baumannii ATCC 17978 assessed as reduction in bacterial growth incubated for 24 hrs by micro-broth dilution method. The format is functional.
Experiment [3] concerns Acinetobacter baumannii. The experiment in a line: Antibacterial activity against Acinetobacter baumannii ATCC 17978 assessed as bacterial eradication. The class given is functional.
Experiment [4] relates to Acinetobacter baumannii. The experiment in a line: Antibacterial activity against Acinetobacter baumannii. The class given is functional.
For experiment [5], the system named is Acinetobacter baumannii. The experiment in a line: Antibacterial activity against Acinetobacter baumannii AB-5075 assessed as reduction in bacterial growth incubated for 18 to 24 hrs by broth micro-dilution assay. The class given is functional, organism-based.
In experiment [6] the test system is Acinetobacter baumannii. The experiment in a line: Antibacterial activity against Acinetobacter baumannii BAA-1605 assessed as reduction in microbial growth incubated for 24 hrs by broth micro-dilution method. The format is functional.
Experiment [7] concerns Acinetobacter baumannii. The experiment in a line: Antibacterial activity against Acinetobacter baumannii ATCC 17978 assessed as inhibition of bacterial growth incubated for 18 to 20 hrs by two fold serial dilution assay. Particulars: time 18-20 hrs. The class given is functional.
Experiment [8] relates to Acinetobacter baumannii. The experiment in a line: Antibacterial activity against Acinetobacter baumannii ATCC 17978 assessed as reduction in bacterial growth incubated for 24 hrs by broth dilution assay. The format is functional.
Experiment [9] has as its system Acinetobacter baumannii. The experiment in a line: Antibacterial activity against Acinetobacter baumannii assessed as zone of inhibition. The format is functional.
Experiment [10] deals with Acinetobacter baumannii. The experiment in a line: Antibacterial activity against Acinetobacter baumannii ATCC 17978 assessed as reduction in microbial growth incubated for 24 hrs Mueller-Hintorn broth dilution method. The following applies: ATCC 17978, 24 h. The format is functional, organism-based.
Another experiment has as its system Escherichia coli. The experiment in a line: Antibacterial activity against Escherichia coli. The format is functional.
Experiment [11] has as its system Staphylococcus aureus. The experiment in a line: Antibacterial activity against Staphylococcus aureus. The class given is functional.
The target of the next experiment is DNA gyrase (Escherichia coli, UniProt P0AES4+P0AES6). The experiment in a line: Inhibition of Escherichia coli DNA gyrase. The format is protein-complex assay.
Experiment [12] deals with Staphylococcus aureus. The experiment in a line: Antibacterial activity against Staphylococcus aureus assessed as reduction in microbial growth. The class given is functional.
The test system of experiment [13] is Acinetobacter baumannii. The experiment in a line: Antibacterial activity against multidrug-resistant Acinetobacter baumannii assessed as inhibition of bacterial growth incubated for 24 hrs by broth dilution assay. The format is functional.
Experiment [14] has as its system Acinetobacter baumannii. The experiment in a line: Bactericidal activity against Acinetobacter baumannii. The class given is functional.
The subject of another experiment is Klebsiella pneumoniae. The experiment in a line: Antibacterial activity against Klebsiella pneumoniae. The format is functional.
Experiment [15] relates to Acinetobacter baumannii. The experiment in a line: Synergistic antibacterial activity against Acinetobacter baumannii clinical isolates assessed as inhibition of bacterial growth incubated for 18 to 24 hrs by Checkerboard assay relative to control. Set-up: scale not given: the % may be the effect or the level left. Particulars: time 18-24 hrs. The class given is functional.

Experiment [16] has as its system Acinetobacter baumannii. The experiment in a line: Synergistic antibacterial activity against Acinetobacter baumannii assessed as inhibition of bacterial growth incubated for 18 to 24 hrs by Checkerboard assay relative to control. The format is functional. Set-up: scale not given: the % may be the effect or the level left. The following applies: time 18-24 hrs.

The subject of experiment [17] is Acinetobacter baumannii. The experiment in a line: Antibacterial activity against Acinetobacter baumannii ATCC 17978 assessed as reduction in microbial growth. The format is functional.

Regarding `CSc1ccc2c(c1)N(CCC1CCCCN1C)c1ccccc1S2` (configuration not stated) [THIORIDAZINE], the MIC in the experiment on Acinetobacter baumannii [1] and in the experiment with Acinetobacter baumannii [2] was 100 µg/mL (≈ 270 µM) throughout. Further, in the experiment on Acinetobacter baumannii [3], the MBEC is reported as 0.3 g/L.

As for `CN(C)c1cc(NC(=O)CNC(C)(C)C)c(O)c2c1C[C@H]1C[C@H]3[C@H](N(C)C)C(O)=C(C(N)=O)C(=O)[C@@]3(O)C(O)=C1C2=O` [TIGECYCLINE], the MIC with Acinetobacter baumannii [4] came to 0.5 µg/mL (≈ 0.854 µM). Moreover, the pIC50 with Acinetobacter baumannii [5] was 6.82. For `CO[C@@]12[C@H](COC(N)=O)C3=C(C(=O)C(C)=C(N)C3=O)N1C[C@@H]1N[C@@H]12` [MITOMYCIN], the MIC in the experiment with Acinetobacter baumannii [6] is at most 8 µg/mL. `Cc1c(N2C[C@H](N)C3(CC3)C2)c(F)cn2c(=O)c(C(=O)O)cc(C3CC3)c12`: the MIC with Acinetobacter baumannii [7] came out at 0.19 µg/mL (≈ 0.512 µM).

In the case of `CNCC1=CCCN(c2c(F)cn3c(=O)c(C(=O)O)cc(C4CC4)c3c2C)C1`, the MIC with Acinetobacter baumannii [8] amounted to 0.16 µM (≈ 0.0617 µg/mL).

Take `O=C(O)c1ccc(-n2cc(/C=N/Nc3ccccc3)c(-c3ccccc3)n2)cc1`: the “inhibition zone (IZ)” value with Acinetobacter baumannii [9] turned out to be 28 mm.

Turning to `CN(C)[C@@H]1C(O)=C(C(N)=O)C(=O)[C@@]2(O)C(O)=C3C(=O)c4c(O)cccc4[C@@](C)(O)[C@H]3C[C@@H]12` [TETRACYCLINE], in the experiment with Acinetobacter baumannii [5], the pIC50 is 7.40. For `NNC(=O)CSc1ccc([N+](=O)[O-])cc1Cl`, the pIC50 in the experiment with Acinetobacter baumannii [10] is 4.93. On to `Cc1cc(=O)n(C)c2c3c4c(cc12)c(C)cc(=O)n4CCO3`, for which the MIC in the experiment with Escherichia coli was over 32 µg/mL; in the experiment with Staphylococcus aureus [11], 0.06 µg/mL (≈ 0.202 µM); against Acinetobacter baumannii [4], over 32 µg/mL. At DNA gyrase, `Cc1[nH]c(C(=O)Nc2nc3cc(NCc4ccccc4)c(C(=O)O)cc3s2)c(Cl)c1Cl` showed a pIC50 of over 7.15. This compound also came in with an MIC against Acinetobacter baumannii [4] of 8 µg/mL (≈ 16.8 µM). On to `CC[C@H]1OC(=O)[C@H](C)[C@@H](O[C@H]2C[C@@](C)(OC)[C@@H](O)[C@H](C)O2)[C@H](C)[C@@H](O[C@@H]2O[C@H](C)C[C@H](N(C)C)[C@H]2O)[C@](C)(O)C[C@@H](C)CN(C)[C@H](C)[C@@H](O)[C@]1(C)O` [AZITHROMYCIN], for which the pIC50 in the experiment on Acinetobacter baumannii [5] is 5.96. In the experiment on Escherichia coli, `Cc1c(CN(C)C(=O)/C=C/c2cnc3c(c2)CCC(=O)N3)oc2ccccc12` [AFN-1252] displayed an MIC of over 32 µg/mL. `C[C@@H](O)[C@H]1C(=O)N2C(C(=O)O)=C(SCCNC=N)C[C@H]12` [IMIPENEM ANHYDROUS] came in with an MIC in the experiment with Acinetobacter baumannii [4] of over 8 µg/mL. As for `Cc1cc(=O)n(C)c2c3c4c(cc12)c(C)cc(=O)n4C(CN)CO3` (configuration not stated), the values for the MIC with Escherichia coli, against Staphylococcus aureus [11] and in the experiment with Acinetobacter baumannii [4] were 0.5 µg/mL (≈ 1.54 µM), 0.03 µg/mL (≈ 0.0922 µM) and 2 µg/mL (≈ 6.15 µM), respectively. Consider `C[C@@H](O)[C@H]1C(=O)N2C(C(=O)O)=C(S[C@@H]3CN[C@H](C(=O)N(C)C)C3)[C@H](C)[C@H]12` [MEROPENEM], for which the MIC with Acinetobacter baumannii [4] is over 8 µg/mL. Regarding `Cc1c(N2C[C@@H](N)[C@@H](C)C2)c(F)cn2c(=O)c(C(=O)O)cc(C3CC3)c12`, the minimum inhibitory concentration (MIC) with Acinetobacter baumannii [7] was found to be 0.09 µg/mL (≈ 0.25 µM). Consider `O=c1[nH]c(=O)n(C2OC(CO)c3ccccc32)cc1F` (configuration not stated), for which the pIC50 with Acinetobacter baumannii [10] is over 5.70. `Cn1cnc2c3c(Cl)c4ccccc4nc3ccc21`: the MBC in the experiment with Staphylococcus aureus [12] is 2 µg/mL. As for `CC(CN1c2ccccc2Sc2ccccc21)N(C)C` (configuration not stated) [PROMETHAZINE], the MIC in the experiment with Acinetobacter baumannii [1] and with Acinetobacter baumannii [2] was 100 µg/mL (≈ 352 µM) each time. Also, in the experiment on Acinetobacter baumannii [3], the MBEC was 0.3 g/L. `O=[N+]([O-])c1ccc(O)c(/C=N/Nc2ccccn2)c1` displayed an MIC in the experiment on Acinetobacter baumannii [4] of 25 µg/mL (≈ 96.8 µM). `O=c1[nH]cc(F)c(=O)[nH]1` [FLUOROURACIL]: the pIC50 in the experiment on Acinetobacter baumannii [5] is 5.74. `CC(C)(C)n1cc(C(=O)O)c(=O)c2cc(F)c(Cl)nc21`: in the experiment on Acinetobacter baumannii [10], the pIC50 was over 5.70. As for THIMEROSAL, in the experiment with Acinetobacter baumannii [13], the MIC was determined as 1 µg/mL. In turn, H-RWKIFKKIPKFLHSAKKW-NH2 registered an MIC with Acinetobacter baumannii [14] of 4 µg/mL.

In turn, `O=C(O)c1ccc(-c2nn(-c3ccc(C(=O)O)cc3)cc2/C=N/Nc2cccc(F)c2)cc1` had an MIC with Acinetobacter baumannii [4] of 1.56 µg/mL (≈ 3.51 µM). `Cc1c(CN(C)C(=O)/C=C/c2cnc3c(c2)CC(N)C(=O)N3)oc2ccccc12` (configuration not stated): the MIC with Escherichia coli, against Klebsiella pneumoniae and against Acinetobacter baumannii [4] was 4 µg/mL (≈ 10.2 µM) throughout.

Consider `Cc1c(N2C[C@H](C)N[C@@H](C)C2)c(F)cn2c(=O)c(C(=O)O)cc(C3CC3)c12`, for which the MIC in the experiment with Acinetobacter baumannii [8] was found to be 0.31 µM (≈ 0.116 µg/mL).

As to `CN1CCN(CCCN2c3ccccc3Sc3ccc(C(F)(F)F)cc32)CC1` [TRIFLUOPERAZINE], the MIC in the experiment on Acinetobacter baumannii [1] and with Acinetobacter baumannii [2] was 100 µg/mL (≈ 245 µM) throughout. Further, the MBEC with Acinetobacter baumannii [3] is 0.3 g/L. Regarding `Brc1ccc2[nH]c(-c3ccncc3)cc2c1`, the MIC in the experiment on Acinetobacter baumannii [7] was under 2 µg/mL. As for `Cc1cc(-n2sc(Cl)c(C)c2=O)ccc1Cl`, in the experiment with Acinetobacter baumannii [13], the MIC came to 2 µg/mL (≈ 7.29 µM).

In the case of `O=C(O)c1ccc(-c2nn(-c3ccc(C(=O)O)cc3)cc2/C=N/Nc2ccc(Cl)cc2)cc1`, the MIC with Acinetobacter baumannii [4] turned out to be 0.79 µg/mL (≈ 1.71 µM).

For `O=C1NC2(CCC3(CC2)OCCO3)NN1c1ccc(Cl)cc1`, the pIC50 with Acinetobacter baumannii [10] was 4.97. `O=C(O)c1ccc(-n2cc(/C=N/Nc3ccc(Cl)cc3)c(-c3ccccc3)n2)cc1`: the MIC against Acinetobacter baumannii [4] is 4 µg/mL (≈ 9.6 µM).

Consider `NCC[C@H](O)C(=O)N[C@@H]1C[C@H](N)[C@@H](O[C@H]2O[C@H](CN)[C@@H](O)[C@H](O)[C@H]2O)[C@H](O)[C@H]1O[C@H]1O[C@H](CO)[C@@H](O)[C@H](N)[C@H]1O` [AMIKACIN], for which the Activity in the experiment on Acinetobacter baumannii [15] came out at 46.2%. For the compound `CC1(C)[C@H](C(=O)O)N2C(=O)C[C@H]2S1(=O)=O` [SULBACTAM], the Activity in the experiment on Acinetobacter baumannii [16] was about 70%. With `CN(C)CCCN1c2ccccc2Sc2ccc(Cl)cc21` [CHLORPROMAZINE], the MIC in the experiment with Acinetobacter baumannii [1] and in the experiment on Acinetobacter baumannii [2] was 100 µg/mL (≈ 314 µM) in each case. Further, in the experiment with Acinetobacter baumannii [3], the MBEC is 0.3 g/L. The compound `COCCCNc1cc2nc(NC(=O)c3[nH]c(C)c(Cl)c3Cl)sc2cc1C(=O)O` yielded an MIC in the experiment with Acinetobacter baumannii [4] of 4 µg/mL (≈ 8.75 µM).

The compound `O=C(O)c1ccc(-n2cc(/C=N/Nc3ccc(F)cc3)c(-c3ccccc3)n2)cc1` came in with an MIC in the experiment with Acinetobacter baumannii [4] of 8 µg/mL (≈ 20 µM). Take `Cc1c(Cl)sn(-c2ccc(Cl)cc2)c1=O`: the minimum inhibitory concentration (MIC) in the experiment on Acinetobacter baumannii [13] turned out to be 0.25 µg/mL (≈ 0.961 µM). As for `Oc1cccc(/C=N/Nc2ccccn2)c1O`, the MIC with Acinetobacter baumannii [4] worked out at 25 µg/mL (≈ 109 µM). Regarding `CNc1nc(NCc2ccccc2)nc2ccc(C)cc12`, the minimal inhibitory concentration (MIC) in the experiment on Acinetobacter baumannii [17] is 1 µM.
